Tested on: strains of Enterobacteriaceae producing various carbapenemases (class A, D and B; 169 strains)
Assay: Meropenem or tebipenem potentiation by Compounds 97 or 62 (MIC)
Format: cell-based
Method in brief: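 Meropenem and tebipenem MICs measured alone or with Compound 97 or 62 held at a fixed 8 μg/ml in the growth medium. Panel of 169 clinical Enterobacteriaceae isolates expressing class A, D and B carbapenemases, alone or with other beta-lactamases.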

Measured: Tebipenem MIC alone (T)

C[C@@H](O)[C@H]1C(=O)N2C(C(=O)O)=C(SC3CN(C4=NCCS4)C3)[C@H](C)[C@H]12 [T]
Z (MIC of greater than 10 μg/mL): CF1023 Citrobacter freundii SHV-12(2be), TEM-OSBL(2b), CTX-M-3, CMY-34, NDM-1 | EC1061 Escherichia coli NDM-1, CMY-6 | EC1069 Escherichia coli CTX-M-27, NDM-1 | EC1070 Escherichia coli TEM-OSBL(2b), CMY-42, NDM-5 | EC1072 Escherichia coli CTX-M-3, NDM-1 | ECL1055 Enterobacter cloacae KPC-3, TEM | ECL1057 Enterobacter cloacae NDM-1, TEM-1, CTX-M-15 | ECL1084 Enterobacter cloacae CTX-M-15, ACT-16, NDM-1 | ECL1085 Enterobacter cloacae SHV-31(2be), TEM-1(2b), CTX-M-15, NDM-1 | ECL1094 Enterobacter cloacae VIM-1 | ECL1095 Enterobacter cloacae SHV-12(2be), TEM-OSBL(2b), CMY-4, ACT-16, VIM-4, OXA-48(c) | ECL1096 Enterobacter cloacae CMY-4, VIM-4, OXA-48(c) | ECL1097 Enterobacter cloacae SHV-31(2be), TEM-OSBL(2b), CTX-M-15, ACT-31, NDM-1 | ECL1098 Enterobacter cloacae TEM-OSBL(2b), DHA-1, ACT-16, NDM-1 | KP1054 Klebsiella pneumoniae VIM-1, SHV-11 | KP1059 Klebsiella pneumoniae VIM-1, SHV-11 | KP1061 Klebsiella pneumoniae KPC-3, TEM-1, SHV-11 | KP1064 Klebsiella pneumoniae KPC-2, TEM-1, SHV-11 | KP1070 Klebsiella pneumoniae KPC-2, SHV-11, TEM-1 | KP1074 Klebsiella pneumoniae KPC-3, SHV-11, TEM | KP1081 Klebsiella pneumoniae NDM-1, TEM-1, SHV-11, CMY-6, CTX-M-15 | KP1158 Klebsiella pneumoniae KPC-2, VIM-1 | KP1161 Klebsiella pneumoniae NDM-1 | KP1162 Klebsiella pneumoniae SHV-1(2b), CTX-M-15, IMP-4 | KP1163 Klebsiella pneumoniae SHV-11(2b), MOX-1, KPC-2, VIM-1 | KP1164 Klebsiella pneumoniae SHV-12(2be), VIM-1 | KP1165 Klebsiella pneumoniae SHV-11(2b), CTX-M-15, VIM-27 | KP1166 Klebsiella pneumoniae SHV-5(2be), VIM-26 | KP1168 Klebsiella pneumoniae SHV-11(2b), CTX-M-15, VIM-27 | KP1170 Klebsiella pneumoniae SHV-11(2b), CTX-M-15, NDM-1 | KP1175 Klebsiella pneumoniae SHV-OSBL(2b), VIM-1 | KP1176 Klebsiella pneumoniae SHV-12(2be), TEM-OSBL(2b), CMY-13, KPC-2, VIM-1 | KP1177 Klebsiella pneumoniae SHV-OSBL(2b), TEM-OSBL(2b), CTX-M-15, NDM-1 | KP1178 Klebsiella pneumoniae SHV-OSBL(2b), TEM-OSBL(2b), CTX-M-15, NDM-1 | KP1179 Klebsiella pneumoniae SHV-12(2be), TEM-OSBL(2b), CTX-M-15, NDM-7
Y (MIC of 1 μg/mL to 10 μg/mL): CF1022 Citrobacter freundii SHV-12(2be), TEM-OSBL(2b), IMP-8 | ECL1045 Enterobacter cloacae VIM-1 | ECL1087 Enterobacter cloacae VIM-1 | ECL1090 Enterobacter cloacae TEM-1(2b), CTX-M-22, ACT-type, IMP-8 | ECL1092 Enterobacter cloacae TEM-OSBL(2b), ACT-32, VIM-1 | ECL1093 Enterobacter cloacae TEM-OSBL(2b), ACT-32, VIM-1 | KP1065 Klebsiella pneumoniae VIM-1, SHV-11 | KP1159 Klebsiella pneumoniae SHV-1(2b), CTX-M-15, IMP-4 | KP1160 Klebsiella pneumoniae SHV-28(2be), CTX-M-15, IMP-26 | KP1169 Klebsiella pneumoniae SHV-11(2b), VIM-1 | KP1172 Klebsiella pneumoniae SHV-31(2be), DHA-1, VIM-1 | KP1173 Klebsiella pneumoniae TEM-33(2br), CTX-M-15, IMP-1 | KP1174 Klebsiella pneumoniae CTX-M-14, IMP-1 | KP1180 Klebsiella pneumoniae SHV-OSBL(2b), TEM-OSBL(2b), CTX-M-15, DHA-1, IMP-26 | KP1181 Klebsiella pneumoniae SHV-OSBL(2b), CTX-M-15, IMP-26
